Reference: ChEMBL document CHEMBL1201862, “PubChem BioAssay data set” (2004)
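Interpolation was linear, between the two tested concentrations surrounding the appropriate level; five concentrations were tested over 48 hours in 96-well plates. GI50 is the concentration that inhibits growth by half.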 Calls of active or inactive are those of the source. No stated cut-off is given here; in the data, active = GI50 up to about 1.1 µM and inactive = higher.

Experiments:
Assay in all cases: inhibition of tumour cell growth, NCI panel, 48 h
SK-MEL-2 = test system: SK-MEL-2
SK-OV-3 = test system: SK-OV-3
SF-295 = test system: SF-295
RPMI-8226 = test system: RPMI-8226
Malme-3M = test system: Malme-3M
U-251 = test system: U-251
COLO 205 = test system: COLO 205
SN12C = test system: SN12C
RXF 393 = test system: RXF 393
MOLT-4 = test system: MOLT-4
CCRF-CEM = test system: CCRF-CEM
SW-620 = test system: SW-620
HOP-92 = test system: HOP-92
DMS-114 = test system: DMS-114
EKVX = test system: EKVX
MDA-MB-231 = test system: MDA-MB-231
MDA-MB-435 = test system: MDA-MB-435
SNB-19 = test system: SNB-19
UO-31 = test system: UO-31
NCI-H522 = test system: NCI-H522

SMILES | GI50 (SK-MEL-2) | GI50 (SK-OV-3) | GI50 (SF-295) | GI50 (RPMI-8226) | GI50 (Malme-3M) | GI50 (U-251) | GI50 (COLO 205) | GI50 (SN12C) | GI50 (RXF 393) | GI50 (MOLT-4) | GI50 (CCRF-CEM) | GI50 (SW-620) | GI50 (HOP-92) | GI50 (DMS-114) | GI50 (EKVX) | GI50 (MDA-MB-231) | GI50 (MDA-MB-435) | GI50 (SNB-19) | GI50 (UO-31) | GI50 (NCI-H522)
Nc1ccc(C(c2ccccc2)(c2ccccc2)c2ccccc2)cc1 | > 100 µM (inactive) | 17.6 µM (inactive) | 12.3 µM (inactive) | 39 µM (inactive) | 30.8 µM (inactive) | 29.7 µM (inactive) | > 100 µM (inactive) | 66.5 µM (inactive) | 10.3 µM (inactive) | > 100 µM (inactive) | 29.6 µM (inactive) | > 100 µM (inactive) | 14 µM (inactive) | 64 µM (inactive) | 27.2 µM (inactive) |  |  |  |  | 
Cc1nc(N)nc(N)c1-c1ccc(Cl)c(Cl)c1 [METOPRINE] | 30.8 µM (inactive) | 3.48 µM (inactive) | 0.411 µM (active) | 6.28 µM (inactive) | 2.91 µM (inactive) | 0.635 µM (active) | 10.4 µM (inactive) | 0.664 µM (active) | 13.2 µM (inactive) | 0.607 µM (active) | 0.432 µM (active) | 0.144 µM (active) | 7.6 µM (inactive) | 0.149 µM (active) | 4.47 µM (inactive) | 0.466 µM (active) | 0.356 µM (active) | 2.69 µM (inactive) | 1.15 µM (inactive) | 0.785 µM (active)
O=C(NC(=O)c1cc2cc(Br)cc(Br)c2oc1=O)Oc1ccccc1 |  | 37 µM (inactive) | 49.9 µM (inactive) | > 100 µM (inactive) | > 100 µM (inactive) | 28.2 µM (inactive) | > 100 µM (inactive) | 61.2 µM (inactive) | 28.2 µM (inactive) | > 100 µM (inactive) | > 100 µM (inactive) | > 100 µM (inactive) | > 100 µM (inactive) | 65.2 µM (inactive) | > 100 µM (inactive) |  |  | 59.8 µM (inactive) | > 100 µM (inactive) | 
CCCCCCCCCCCCCCCC(=O)NCC(OCC)OCC | > 100 µM (inactive) | > 100 µM (inactive) | > 100 µM (inactive) |  | > 100 µM (inactive) | > 100 µM (inactive) | > 100 µM (inactive) | > 100 µM (inactive) | > 100 µM (inactive) |  | > 100 µM (inactive) | > 100 µM (inactive) | > 100 µM (inactive) | > 100 µM (inactive) | > 100 µM (inactive) |  |  | > 100 µM (inactive) | > 100 µM (inactive) | > 100 µM (inactive)
CCOC(=O)c1nn2c(nc1=O)sc1ccc3ccccc3c12 | > 100 µM (inactive) | > 100 µM (inactive) | > 100 µM (inactive) | > 100 µM (inactive) | > 100 µM (inactive) | > 100 µM (inactive) | > 100 µM (inactive) | > 100 µM (inactive) | > 100 µM (inactive) | > 100 µM (inactive) | 58.2 µM (inactive) | > 100 µM (inactive) | > 100 µM (inactive) | > 100 µM (inactive) | > 100 µM (inactive) |  |  | > 100 µM (inactive) | > 100 µM (inactive) | 
COC(=O)[C@H]1COC(=S)N1C(=O)[C@@H](C)[C@H](O)C(C)C | > 100 µM (inactive) | > 100 µM (inactive) | > 100 µM (inactive) | > 100 µM (inactive) | > 100 µM (inactive) | > 100 µM (inactive) | > 100 µM (inactive) | > 100 µM (inactive) | > 100 µM (inactive) | > 100 µM (inactive) | > 100 µM (inactive) | > 100 µM (inactive) | > 100 µM (inactive) | 84.7 µM (inactive) | > 100 µM (inactive) |  |  | > 100 µM (inactive) | > 100 µM (inactive) | 
CC(=O)OC(C)(C)/C=C/C(=O)[C@](C)(O)[C@H]1[C@H](O)C[C@@]2(C)[C@@H]3CC=C4[C@@H](C[C@H](O)[C@H](O)C4(C)C)[C@]3(C)C(=O)C[C@]12C | 0.752 µM (active) | 2.79 µM (inactive) | 0.973 µM (active) | 0.107 µM (active) | 1.11 µM (active) | 0.687 µM (active) | 0.31 µM (active) | 0.401 µM (active) | 0.383 µM (active) | 0.289 µM (active) | 0.229 µM (active) | 0.274 µM (active) | 0.22 µM (active) | 0.324 µM (active) | 0.601 µM (active) |  |  | 0.7 µM (active) | 0.839 µM (active) | 0.259 µM (active)
COC(=O)C(C(=O)C(=O)Nc1ccc(N)cc1[N+](=O)[O-])c1nc2ccc(Cl)cc2nc1O (stereo not drawn) | > 100 µM (inactive) | > 100 µM (inactive) | > 100 µM (inactive) | > 100 µM (inactive) | > 100 µM (inactive) |  | > 100 µM (inactive) | > 100 µM (inactive) | 60.7 µM (inactive) | > 100 µM (inactive) | 92.5 µM (inactive) | > 100 µM (inactive) | 52.7 µM (inactive) | > 100 µM (inactive) | > 100 µM (inactive) |  |  | > 100 µM (inactive) | 41 µM (inactive) | 
Cc1c(C(=O)CC(=O)C(=O)Nc2ccc(Cl)cc2)[n+]([O-])c2ccccc2[n+]1[O-] | > 100 µM (inactive) | > 100 µM (inactive) | > 100 µM (inactive) | > 100 µM (inactive) | > 100 µM (inactive) | > 100 µM (inactive) | > 100 µM (inactive) | > 100 µM (inactive) |  | > 100 µM (inactive) | > 100 µM (inactive) | > 100 µM (inactive) | > 100 µM (inactive) | > 100 µM (inactive) | > 100 µM (inactive) |  |  | > 100 µM (inactive) | > 100 µM (inactive) | > 100 µM (inactive)
ClCCNCCNCCCl.ClCCNCCNCCCl.[O-][Cl+3]([O-])([O-])O | 21.4 µM (inactive) | > 100 µM (inactive) | 54.6 µM (inactive) | 33.3 µM (inactive) | 19.5 µM (inactive) | 25.4 µM (inactive) | 40.7 µM (inactive) | 61.2 µM (inactive) | 40.7 µM (inactive) | 31.4 µM (inactive) | 29.5 µM (inactive) | 21 µM (inactive) | 39.7 µM (inactive) | 23.9 µM (inactive) | > 100 µM (inactive) |  |  | > 100 µM (inactive) | 26.8 µM (inactive) | 11.4 µM (inactive)
COc1ccc2c(c1)CN1CCc3c(cc(OC)c(OC)c3OC)C1C2 (stereo not drawn) | > 100 µM (inactive) | > 100 µM (inactive) | > 100 µM (inactive) | 38.4 µM (inactive) | > 100 µM (inactive) | > 100 µM (inactive) | > 100 µM (inactive) | > 100 µM (inactive) | > 100 µM (inactive) | 63 µM (inactive) | 74.6 µM (inactive) | > 100 µM (inactive) | > 100 µM (inactive) | 58.5 µM (inactive) | > 100 µM (inactive) |  |  | > 100 µM (inactive) | > 100 µM (inactive) | > 100 µM (inactive)
